Experimental data as given in patent US8680275B2, “Fused heterocyclic compounds as orexin receptor modulators” (Janssen Pharmaceutica NV, priority 2009, dated 2014).
Where two headings read alike, the source gives them in different places.

What was measured:
human orexin 1 receptor = human orexin 1 receptor (Homo sapiens (Human), UniProt O43613); assay: Human orexin 1 receptor radioligand binding ([3H]-SB674042 competition); conditions: read-out: OR-1 Ki
How it was run: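 CHO cells stably expressing human OX1R incubated 60 min at room temperature with [3H]-SB674042 and compounds (7 concentrations, 0.1 nM–10 μM; DMSO ≤0.1%) in PBS. Nonspecific binding defined with 10 μM of a reference urea antagonist; bound radioactivity measured by filtration and scintillation counting.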

human orexin-2 receptor = human orexin-2 receptor (Homo sapiens (Human), UniProt O43614); assay: Human orexin 2 receptor radioligand binding ([3H]-EMPA competition); conditions: read-out: OR-2 Ki
human orexin-2 receptor, sequence (O43614 whole entry): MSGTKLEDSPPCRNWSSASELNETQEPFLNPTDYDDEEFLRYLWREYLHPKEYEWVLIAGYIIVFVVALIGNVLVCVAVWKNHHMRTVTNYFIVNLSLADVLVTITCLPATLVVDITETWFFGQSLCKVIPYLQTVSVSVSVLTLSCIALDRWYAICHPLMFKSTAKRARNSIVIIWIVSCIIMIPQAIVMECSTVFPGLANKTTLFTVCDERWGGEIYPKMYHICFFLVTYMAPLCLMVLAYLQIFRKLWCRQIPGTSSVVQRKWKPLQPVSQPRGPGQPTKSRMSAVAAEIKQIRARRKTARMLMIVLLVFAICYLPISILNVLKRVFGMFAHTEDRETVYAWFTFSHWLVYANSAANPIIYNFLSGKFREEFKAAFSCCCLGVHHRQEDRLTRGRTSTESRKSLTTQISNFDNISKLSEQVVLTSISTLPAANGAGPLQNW
How it was run: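 Competition binding on HEK293 cells stably expressing human orexin-2 receptor, using 5 nM final [3H]-EMPA in PBS, compounds 0.1 nM to 10 μM (DMSO ≤0.1%). 60 min at room temperature, then filtration and scintillation counting; nonspecific binding defined with 10 μM of a reference antagonist.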

[1] = CHO cells stably expressing human orexin 1 receptor, [3H]-SB674042 4 nM final
[2] = HEK293 cells stably expressing human orexin-2 receptor, [3H]-EMPA 5 nM final

human orexin 1 receptor, sequence (O43613 whole entry): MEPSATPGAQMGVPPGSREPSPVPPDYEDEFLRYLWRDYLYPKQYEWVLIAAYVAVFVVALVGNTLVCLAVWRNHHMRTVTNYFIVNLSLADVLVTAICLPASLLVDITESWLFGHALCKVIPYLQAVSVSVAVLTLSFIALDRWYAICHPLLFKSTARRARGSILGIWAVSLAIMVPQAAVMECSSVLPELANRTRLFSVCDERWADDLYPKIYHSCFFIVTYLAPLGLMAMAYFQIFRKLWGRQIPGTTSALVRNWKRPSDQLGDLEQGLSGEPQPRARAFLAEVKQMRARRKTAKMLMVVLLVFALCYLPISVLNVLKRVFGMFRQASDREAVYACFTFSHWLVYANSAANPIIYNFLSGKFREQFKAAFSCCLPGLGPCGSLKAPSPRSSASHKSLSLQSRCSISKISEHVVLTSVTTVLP

Structure (SMILES) | Ki (human orexin 1 receptor; [1]) [nM] | Ki (human orexin-2 receptor; [2]) [nM] | Ki (human orexin 1 receptor) [nM] | Ki (human orexin-2 receptor) [nM]
Cc1cncc(N2C[C@@H]3CCN(C(=O)c4cccc(F)c4-n4nccn4)C[C@@H]32)n1 [Example 110, (1R,6S)-3-{[3-Fluoro-2-(2H-1,2,3-triazol-2-yl)phenyl]carbonyl}-8-(6-methylpyrazin-2-yl)-3,8-diazabicyclo[4.2.0]octane] | 10000 | 220 |  | 
Cc1cncc(N2C[C@@H]3CCN(C(=O)c4cc(F)ccc4-n4nccn4)C[C@@H]32)n1 [Example 111, (1R,6S)-3-{[5-Fluoro-2-(2H-1,2,3-triazol-2-yl)phenyl]carbonyl}-8-(6-methylpyrazin-2-yl)-3,8-diazabicyclo[4.2.0]octane] | 5000 | 176 |  | 
Cc1cncc(N2C[C@@H]3CCN(C(=O)c4ccccc4-n4nccn4)C[C@@H]32)n1 [Example 112, (1R,6S)-8-(6-Methylpyrazin-2-yl)-3-{[2-(2H-1,2,3-triazol-2-yl)phenyl]carbonyl}-3,8-diazabicyclo[4.2.0]octane] | 1960 | 115 |  | 
Cc1cncc(N2C[C@@H]3CCN(C(=O)c4c(F)cccc4-n4nccn4)C[C@@H]32)n1 [Example 113, (1R,6S)-3-{[2-Fluoro-6-(2H-1,2,3-triazol-2-yl)phenyl]carbonyl}-8-(6-methylpyrazin-2-yl)-3,8-diazabicyclo[4.2.0]octane] | 9000 | 161 |  | 
Cc1cncc(N2C[C@@H]3CCN(C(=O)c4ccc(F)cc4-n4nccn4)C[C@@H]32)n1 [Example 114, (1R,6S)-3-{[4-Fluoro-2-(2H-1,2,3-triazol-2-yl)phenyl]carbonyl}-8-(6-methylpyrazin-2-yl)-3,8-diazabicyclo[4.2.0]octane] |  | 494 | 10000 | 
O=C(c1ccc(F)cc1-n1nccn1)N1CC[C@H]2CN(c3cnc4ccccc4n3)[C@H]2C1 [Example 115, 2-[(1R,6S)-3-{[4-Fluoro-2-(2H-1,2,3-triazol-2-yl)phenyl]carbonyl}-3,8-diazabicyclo[4.2.0]oct-8-yl]quinoxaline] | 177 | 60 |  | 
O=C(c1cccc(F)c1-n1nccn1)N1CC[C@H]2CN(c3cnc4ccccc4n3)[C@H]2C1 [Example 116, 2-[(1R,6S)-3-{[3-Fluoro-2-(2H-1,2,3-triazol-2-yl)phenyl]carbonyl}-3,8-diazabicyclo[4.2.0]oct-8-yl]quinoxaline] | 23 | 28 |  | 
O=C(c1c(F)cccc1-n1nccn1)N1CC[C@H]2CN(c3cnc4ccccc4n3)[C@H]2C1 [Example 117, 2-[(1R,6S)-3-{[2-Fluoro-6-(2H-1,2,3-triazol-2-yl)phenyl]carbonyl}-3,8-diazabicyclo[4.2.0]oct-8-yl]quinoxaline] | 23 | 18 |  | 
O=C(c1cc(F)ccc1-n1nccn1)N1CC[C@H]2CN(c3cnc4ccccc4n3)[C@H]2C1 [Example 118, 2-[(1R,6S)-3-{[5-Fluoro-2-(2H-1,2,3-triazol-2-yl)phenyl]carbonyl}-3,8-diazabicyclo[4.2.0]oct-8-yl]quinoxaline] | 33 | 40 |  | 
O=C(c1ccccc1-n1nccn1)N1CC[C@H]2CN(c3nc4cc(Cl)ccc4o3)[C@H]2C1 [Example 119, 5-Chloro-2-[(1R,6S)-3-{[2-(2H-1,2,3-triazol-2-yl)phenyl]carbonyl}-3,8-diazabicyclo[4.2.0]oct-8-yl]-1,3-benzoxazole] | 32 | 17 |  | 
O=C(c1c(F)cccc1-n1nccn1)N1CC[C@H]2CN(c3nc4cc(Cl)ccc4o3)[C@H]2C1 [Example 120, 5-Chloro-2-[(1R,6S)-3-{[2-fluoro-6-(2H-1,2,3-triazol-2-yl)phenyl]carbonyl}-3,8-diazabicyclo[4.2.0]oct-8-yl]-1,3-benzoxazole] | 43 | 26 |  | 
O=C(c1cc(F)ccc1-n1nccn1)N1CC[C@H]2CN(c3nc4cc(Cl)ccc4o3)[C@H]2C1 [Example 121, 5-Chloro-2-[(1R,6S)-3-{[5-fluoro-2-(2H-1,2,3-triazol-2-yl)phenyl]carbonyl}-3,8-diazabicyclo[4.2.0]oct-8-yl]-1,3-benzoxazole] | 91 |  |  | 75
O=C(c1ccc(F)cc1-n1nccn1)N1CC[C@H]2CN(c3nc4cc(Cl)ccc4o3)[C@H]2C1 [Example 122, 5-Chloro-2-[(1R,6S)-3-{[4-fluoro-2-(2H-1,2,3-triazol-2-yl)phenyl]carbonyl}-3,8-diazabicyclo[4.2.0]oct-8-yl]-1,3-benzoxazole] | 128 | 59 |  | 
O=C(c1cccc(F)c1-n1nccn1)N1CC[C@H]2CN(c3nc4cc(Cl)ccc4o3)[C@H]2C1 [Example 123, 5-Chloro-2-[(1R,6S)-3-{[3-fluoro-2-(2H-1,2,3-triazol-2-yl)phenyl]carbonyl}-3,8-diazabicyclo[4.2.0]oct-8-yl]-1,3-benzoxazole] | 95 | 45 |  | 
Cc1cccc(N2C[C@@H]3CCN(C(=O)c4c(F)cccc4-n4nccn4)C[C@@H]32)n1 [Example 124, (1R,6S)-3-{[2-Fluoro-6-(2H-1,2,3-triazol-2-yl)phenyl]carbonyl}-8-(6-methylpyridin-2-yl)-3,8-diazabicyclo[4.2.0]octane] | 4150 | 92 |  | 
Cc1cccc(N2C[C@@H]3CCN(C(=O)c4ccccc4-n4nccn4)C[C@@H]32)n1 [Example 125, (1R,6S)-8-(6-Methylpyridin-2-yl)-3-{[2-(2H-1,2,3-triazol-2-yl)phenyl]carbonyl}-3,8-diazabicyclo[4.2.0]octane] | 3300 | 73 |  | 
Cc1cccc(N2C[C@@H]3CCN(C(=O)c4cc(F)ccc4-n4nccn4)C[C@@H]32)n1 [Example 126, (1R,6S)-3-{[5-Fluoro-2-(2H-1,2,3-triazol-2-yl)phenyl]carbonyl}-8-(6-methylpyridin-2-yl)-3,8-diazabicyclo[4.2.0]octane] | 5470 | 149 |  | 
Cc1ccnc(N2C[C@@H]3CCN(C(=O)c4cc(F)ccc4-n4nccn4)C[C@@H]32)c1 [Example 127, (1R,6S)-3-{[5-Fluoro-2-(2H-1,2,3-triazol-2-yl)phenyl]carbonyl}-8-(4-methylpyridin-2-yl)-3,8-diazabicyclo[4.2.0]octane] | 10000 | 210 |  | 
Cc1cc(C)nc(N2C[C@@H]3CCN(C(=O)c4cc(F)ccc4-n4nccn4)C[C@@H]32)c1 [Example 128, (1R,6S)-8-(4,6-Dimethylpyridin-2-yl)-3-{[5-fluoro-2-(2H-1,2,3-triazol-2-yl)phenyl]carbonyl}-3,8-diazabicyclo[4.2.0]octane] | 1010 | 26 |  | 
O=C(c1cc(F)ccc1-n1nccn1)N1CC[C@H]2CN(c3cccc(C(F)(F)F)n3)[C@H]2C1 [Example 129, (1R,6S)-3-{[5-Fluoro-2-(2H-1,2,3-triazol-2-yl)phenyl]carbonyl}-8-[6-(trifluoromethyl)pyridin-2-yl]-3,8-diazabicyclo[4.2.0]octane] | 265 | 36 |  | 
O=C(c1cc(F)ccc1-n1nccn1)N1CC[C@H]2CN(c3cc(C(F)(F)F)ccn3)[C@H]2C1 [Example 130, (1R,6S)-3-{[5-Fluoro-2-(2H-1,2,3-triazol-2-yl)phenyl]carbonyl}-8-[4-(trifluoromethyl)pyridin-2-yl]-3,8-diazabicyclo[4.2.0]octane] | 1720 | 31 |  | 
Cc1ccc(N2C[C@@H]3CCN(C(=O)c4cc(F)ccc4-n4nccn4)C[C@@H]32)nc1 [Example 131, (1R,6S)-3-{[5-Fluoro-2-(2H-1,2,3-triazol-2-yl)phenyl]carbonyl}-8-(5-methylpyridin-2-yl)-3,8-diazabicyclo[4.2.0]octane] | 1600 | 250 |  | 
Cc1cc(C)nc(N2C[C@@H]3CCN(C(=O)c4cccc(C)c4-n4cccn4)C[C@@H]32)n1 [Example 133, (1R,6S)-8-(4,6-Dimethylpyrimidin-2-yl)-3-{[3-methyl-2-(1H-pyrazol-1-yl)phenyl]carbonyl}-3,8-diazabicyclo[4.2.0]octane] | 550 | 36 |  | 
COc1ccc(-n2nccn2)c(C(=O)N2CC[C@H]3CN(c4nc(C)cc(C)n4)[C@H]3C2)c1 [Example 134, (1R,6S)-8-(4,6-Dimethylpyrimidin-2-yl)-3-{[5-methoxy-2-(2H-1,2,3-triazol-2-yl)phenyl]carbonyl}-3,8-diazabicyclo[4.2.0]octane] | 277 | 16 |  | 
Cc1cc(C)nc(N2C[C@@H]3CCN(C(=O)c4cccc(C)c4-n4nccn4)C[C@@H]32)n1 [Example 135, (1R,6S)-8-(4,6-Dimethylpyrimidin-2-yl)-3-{[3-methyl-2-(2H-1,2,3-triazol-2-yl)phenyl]carbonyl}-3,8-diazabicyclo[4.2.0]octane] | 135 | 15 |  | 
Cc1cc(C)nc(N2C[C@@H]3CCN(C(=O)c4nccnc4-c4ccccc4)C[C@@H]32)n1 [Example 137, (1R,6S)-8-(4,6-Dimethylpyrimidin-2-yl)-3-[(3-phenylpyrazin-2-yl)carbonyl]-3,8-diazabicyclo[4.2.0]octane] | 10000 | 275 |  | 
Cc1cc(C)nc(N2C[C@@H]3CCN(C(=O)c4cccc(C)c4-n4ccnn4)C[C@@H]32)n1 [Example 138, (1R,6S)-8-(4,6-Dimethylpyrimidin-2-yl)-3-{[3-methyl-2-(1H-1,2,3-triazol-1-yl)phenyl]carbonyl}-3,8-diazabicyclo[4.2.0]octane] | 1650 | 70 |  | 
